In patent US8299302B2 (priority 2007, dated 2012):
Where two headings read alike, the source gives them in different places.

Columns and labels:
Podosphaera leucotricha = test: Podosphaera test (apple) / protective; assay type: in vivo; settings: 240 h, read-out: efficacy
Description: (§1) To produce a suitable preparation of active compound, 1 part by weight of active compound is mixed with the stated amounts of solvent and emulsifier, and the concentrate is diluted with water to the desired concentration.
(§2) To test for protective activity, young plants are sprayed with the active compound preparation at the stated application rate. After the spray coating has dried on, the plants are inoculated with an aqueous spore suspension of the apple mildew pathogen Podosphaera leucotricha. The plants are then placed in a greenhouse at about 23° C. and a relative atmospheric humidity of about 70%.
(§3) Evaluation is carried out 10 days after the inoculation. 0% means an efficacy which corresponds to that of the control, whereas an efficacy of 100% means that no infection is observed.

Sphaerotheca fuliginea = test: Sphaerotheca test (cucumber) / protective; assay type: in vivo; settings: Podosphaera fuliginea, 168 h, read-out: efficacy
Description: as §1
as §2, with “dried,” for “dried on,”, “Sphaerotheca fuliginea.” for “the apple mildew pathogen Podosphaera leucotricha.”
Evaluation is carried out 7 days after the inoculation. 0% means an efficacy which corresponds to that of the control, whereas an efficacy of 100% means that no infection is observed.

Botrytis cinerea = test: Botrytis test (bean) / protective; assay type: in vivo; settings: 48 h, read-out: efficacy
Description: as §1
To test for protective activity, young plants are sprayed with the active compound preparation at the stated application rate. After the spray coating has dried on, 2 small pieces of agar overgrown with Botrytis cinerea are placed on each leaf. The inoculated plants are then placed in a darkened chamber at about 20° C. and 100% relative atmospheric humidity.
Two days after the inoculation the size of the infected spots on the leaves is evaluated. 0% means an efficacy which corresponds to that of the control, whereas an efficacy of 100% means that no infection is observed.

Uromyces appendiculatus = test: Uromyces test (bean) / protective; assay type: in vivo; settings: 240 h, read-out: efficacy
Description: as §1
To test for protective activity, young plants are sprayed with the active compound preparation at the stated application rate. After the spray coating has dried on, the plants are inoculated with an aqueous spore suspension of the bean rust pathogen Uromyces appendiculatus and then remain in an incubation cabin at about 20° C. and 100% relative atmospheric humidity for 1 day.
The plants are then placed in a greenhouse at about 21° C. and a relative atmospheric humidity of about 90%.
as §3

Puccinia recondita = test: Puccinia test (wheat) / protective; assay type: in vivo; settings: 240 h, read-out: efficacy
Description: as §1
To test for protective activity, young plants are sprayed with the active compound preparation at the stated application rate. After the spray coating has dried on, the plants are sprayed with a conidia suspension of Puccinia recondita. The plants remain in an incubation cabin at 20° C. and 100% relative atmospheric humidity for 48 hours.
The plants are then placed in a greenhouse at a temperature of about 20° C. and a relative atmospheric humidity of 80% to promote the development of rust pustules.
as §3

[1] = apple plants, protective spray, active compound concentration 100 ppm, evaluation 10 days after inoculation
[2] = cucumber plants, protective spray, active compound concentration 100 ppm, evaluation 7 days after inoculation
[3] = bean plants, protective spray, active compound concentration 250 ppm, evaluation two days after inoculation
[4] = bean plants, protective spray, active compound concentration 10 ppm, evaluation 10 days after inoculation
[5] = wheat plants, protective spray, active compound concentration 1000 ppm, evaluation 10 days after inoculation

Compound | log P (pH 2.3) | pest or weed control at 100 ppm (Podosphaera leucotricha; [1]) [%] | pest or weed control at 100 ppm (Sphaerotheca fuliginea; [2]) [%] | pest or weed control at 250 ppm (Botrytis cinerea; [3]) [%] | pest or weed control at 10 ppm (Uromyces appendiculatus; [4]) [%] | pest or weed control at 1000 ppm (Puccinia recondita; [5]) [%] | logP (logP (acidic, pH 2.3); pH 2.3, logP acidic, acidic) | pest or weed control at 100 ppm (Podosphaera leucotricha) [%] | pest or weed control at 100 ppm (Sphaerotheca fuliginea) [%] | pest or weed control at 250 ppm (Botrytis cinerea) [%] | pest or weed control at 10 ppm (Uromyces appendiculatus) [%] | pest or weed control at 1000 ppm (Puccinia recondita) [%] | logP (logP (acidic, pH 2.3); pH 2.3) | logP (logP (acidic, pH 2.3); pH 2.3, log P (pH 2.3), pH 2.3)
4-(4-Bromophenoxy)-2,5-dimethylnitrobenzene | 4.86 |  |  |  |  |  |  |  |  |  |  |  |  | 
CCN(C)C=Nc1cc(C)c(Oc2ccc(-c3ccc(SC)cc3)cc2)cc1C [Compound 6, N′-(2,5-dimethyl-4-{[4′-(methylthio)biphenyl-4-yl]oxy}phenyl)-N-ethyl-N-methylimidoformamide] |  | ≥ 70 | ≥ 70 | ≥ 70 | ≥ 70 | ≥ 70 | 2.67 |  |  |  |  |  |  | 
CCN(C)C=Nc1cc(C)c(Oc2ccc(-c3ccc(Cl)cc3)cc2)cc1C [Compound 1, N′-{4-[(4′-chlorobiphenyl-4-yl)oxy]-2,5-dimethylphenyl}-N-ethyl-N-methylimidoformamide] |  | ≥ 70 | ≥ 70 | ≥ 70 | ≥ 70 | ≥ 70 | 2.95 |  |  |  |  |  |  | 
CCN(C)C=Nc1cc(C)c(Oc2ccc(-c3ccccc3C(C)=O)cc2)cc1C [Compound 18] |  |  |  |  |  |  |  | ≥ 70 | ≥ 70 | ≥ 70 | ≥ 70 | ≥ 70 | 2.29 | 
4-(4-Cyclohexylphenoxy)-2,5-dimethylnitrobenzene | 6.69 |  |  |  |  |  |  |  |  |  |  |  |  | 
Cc1cc(Oc2ccc(C3CCCC3)cc2)c(C)cc1N=CN(C)C(C)C [Compound 33, N′-[4-(4-cyclopentylphenoxy)-2,5-dimethylphenyl]-N-isopropyl-N-methylimidoformamide] |  | ≥ 70 | ≥ 70 | ≥ 70 | ≥ 70 | ≥ 70 | 3 |  |  |  |  |  |  | 
CCN(C)C=Nc1cc(C)c(Oc2ccc(-c3ccc(F)cc3)cc2)cc1C [Compound 11] |  |  |  |  |  |  |  | ≥ 70 | ≥ 70 | ≥ 70 | ≥ 70 | ≥ 70 | 2.69 | 
CCN(C)C=Nc1cc(C)c(Oc2ccc(-c3ccc(OC)cc3)cc2)cc1C [Compound 5, N-ethyl-N′-{4-[(4′-methoxybiphenyl-4-yl)oxy]-2,5-dimethylphenyl}-N-methylimidoformamide] |  | ≥ 70 | ≥ 70 | ≥ 70 | ≥ 70 | ≥ 70 | 2.47 |  |  |  |  |  |  | 2.57
CCN(C)C=Nc1cc(C)c(Oc2ccc(-c3ccccc3C)cc2)cc1C [Compound 16] |  |  |  |  |  |  |  | ≥ 70 | ≥ 70 | ≥ 70 | ≥ 70 | ≥ 70 | 2.75 | 
CCN(C)C=Nc1cc(C)c(Oc2ccc(-c3ccccc3Cl)cc2)cc1C [Compound 27, N′-{4-[(2′-chlorobiphenyl-4-yl)oxy]-2,5-dimethylphenyl}-N-ethyl-N-methylimidoformamide] |  | ≥ 70 | ≥ 70 | ≥ 70 | ≥ 70 | ≥ 70 | 2.67 |  |  |  |  |  |  | 
CCc1ccccc1-c1ccc(Oc2cc(C)c(N=CN(C)CC)cc2C)cc1 [Compound 13] |  |  |  |  |  |  |  | ≥ 70 | ≥ 70 | ≥ 70 | ≥ 70 | ≥ 70 | 2.89 | 
CCN(C)C=Nc1cc(C)c(Oc2ccc(C3CCCC3)cc2)cc1C [Compound 32, N′-[4-(4-cyclopentylphenoxy)-2,5-dimethylphenyl]-N-ethyl-N-methylimidoformamide] |  | ≥ 70 | ≥ 70 | ≥ 70 | ≥ 70 | ≥ 70 | 2.87 |  |  |  |  |  |  | 
CCN(C)C=Nc1cc(C)c(Oc2ccc(-c3ccccc3F)cc2)cc1C [Compound 17] |  |  |  |  |  |  |  | ≥ 70 | ≥ 70 | ≥ 70 | ≥ 70 | ≥ 70 | 2.56 | 
